Measured values published in patent US7776858B2, “Methods of treatment of chronic pain using eszopiclone” (Sepracor Inc., priority 2004, dated 2010).

Tests used:
[1] = system: subjects with insomnia related to rheumatoid arthritis; experiment: Arthritis Self-Efficacy Scale, clinical study of eszopiclone 3 mg vs placebo; type: in vivo, human; details: 3 mg nightly, visit 6 (EOS), ITT
Experimental: (§1) The study was aimed at observing the effect of eszopiclone 3 mg compared to placebo on daytime function in subjects with insomnia related to rheumatoid arthritis. The study was a multicenter, randomized, double-blind, placebo controlled, parallel group study.
A total of 153 subjects were randomized. Among them, 77 received 3 mg of eszopiclone (ESZ) nightly (at bedtime) for four weeks and 76 received matching placebo (PBO). […] In addition, subjects had insomnia symptoms including wake time after sleep onset (WASO) of ≧45 minutes, and total sleep time ≦6.5 hours. Diagnosis of rheumatoid arthritis predated the onset of insomnia symptoms.
(§2) During the double blind treatment, subjects were dosed with 3 mg eszopiclone (ESZ) or matching placebo (PBO) nightly (at bedtime) for four weeks. Data was analyzed with one-sided significance tests.

[2] = system: subjects with insomnia related to rheumatoid arthritis; experiment: Subject Pain Severity Assessment (0 to 10 scale), clinical study of eszopiclone 3 mg vs placebo; type: in vivo, human
Experimental: as §1
A total of 153 subjects were randomized. Among them, 77 received 3 mg of eszopiclone (ESZ) nightly (at bedtime) for four weeks and 76 received matching placebo (PBO). The discontinuation rates were low, 5.2% in the ESZ group and 9.2% in the PBO group. The patient population was predominantly female (87%) and Caucasian (84%). Mean age was 52, with a range of 27-64. […] In addition, subjects had insomnia symptoms including wake time after sleep onset (WASO) of ≧45 minutes, and total sleep time ≦6.5 hours. Diagnosis of rheumatoid arthritis predated the onset of insomnia symptoms.
as §2

conscious dogs = experiment: Dose escalation safety study, cardiovascular and respiratory parameters after acute intravenous administration; details: acute intravenous, 3, 5 and 12 mg/kg
Experimental: To establish the safety of eszopiclone, a dose escalation study was carried out. Cardiovascular and respiratory parameters were evaluated in conscious dogs following acute intravenous administration of (R)-, (S)- or racemic zopiclone at three doses (3, 5 and 12 mg/kg).

mice = experiment: Antagonism of oxotremorine induced salivation; type: in vivo; details: doses up to 300 mg/kg, p.o.
Experimental: Eszopiclone was evaluated for antimuscarinic activity in vivo.

[3] = 3 mg nightly, visit 5 (Week 4), ITT, scale 0 to 10

CN1CCN(C(=O)O[C@H]2c3nccnc3C(=O)N2c2ccc(Cl)cn2)CC1 [Eszopiclone, (+) 6-(5-chloropyrid-2-yl)-5-(4-methylpiperazin-1-yl)carbonyloxy-7-oxo-6,7-dihydro-5H-pyrrolo[3-4-b]pyrazine]
Arthritis Self-Efficacy Scale Function, Observed Value, Maximum [1]: 90.0
Arthritis Self-Efficacy Scale Function, Observed Value, Mean (SD) [1]: 64.1 (20.5)
Arthritis Self-Efficacy Scale Function, Observed Value, Median [1]: 65.0
Arthritis Self-Efficacy Scale Function, Observed Value, Minimum [1]: 23.0
Arthritis Self-Efficacy Scale Other Symptoms, Change from Baseline, 25th Percentile [1]: −2.5
Arthritis Self-Efficacy Scale Other Symptoms, Change from Baseline, 75th Percentile [1]: 10.0
Arthritis Self-Efficacy Scale Other Symptoms, Change from Baseline, Maximum [1]: 39.0
Arthritis Self-Efficacy Scale Other Symptoms, Change from Baseline, Mean (SD) [1]: 3.8 (10.7)
Arthritis Self-Efficacy Scale Other Symptoms, Change from Baseline, Median [1]: 3.0
Arthritis Self-Efficacy Scale Other Symptoms, Change from Baseline, Minimum [1]: −24.0
Arthritis Self-Efficacy Scale Other Symptoms, Observed Value, 25th Percentile [1]: 31.0
Arthritis Self-Efficacy Scale Other Symptoms, Observed Value, 75th Percentile [1]: 51.0
Arthritis Self-Efficacy Scale Other Symptoms, Observed Value, Maximum [1]: 59.0
Arthritis Self-Efficacy Scale Other Symptoms, Observed Value, Mean (SD) [1]: 40.6 (12.6)
Arthritis Self-Efficacy Scale Other Symptoms, Observed Value, Median [1]: 41.5
Arthritis Self-Efficacy Scale Other Symptoms, Observed Value, Minimum [1]: 8.0
Arthritis Self-Efficacy Scale Overall, Change from Baseline, 25th Percentile [1]: −3.0
Arthritis Self-Efficacy Scale Overall, Change from Baseline, 75th Percentile [1]: 32.0
Arthritis Self-Efficacy Scale Overall, Change from Baseline, Maximum [1]: 84.0
Arthritis Self-Efficacy Scale Overall, Change from Baseline, Mean (SD) [1]: 14.0 (30.5)
Arthritis Self-Efficacy Scale Overall, Change from Baseline, Median [1]: 12.5
Arthritis Self-Efficacy Scale Overall, Change from Baseline, Minimum [1]: −89.0
Arthritis Self-Efficacy Scale Overall, Observed Value, 25th Percentile [1]: 111.0
Arthritis Self-Efficacy Scale Overall, Observed Value, 75th Percentile [1]: 163.0
Arthritis Self-Efficacy Scale Overall, Observed Value, Maximum [1]: 193.0
Arthritis Self-Efficacy Scale Overall, Observed Value, Mean (SD) [1]: 134.5 (35.9)
Arthritis Self-Efficacy Scale Overall, Observed Value, Median [1]: 133.0
Arthritis Self-Efficacy Scale Overall, Observed Value, Minimum [1]: 50.0
Arthritis Self-Efficacy Scale Pain and Other Symptoms, Change from Baseline, 25th Percentile [1]: −5.0
Arthritis Self-Efficacy Scale Pain and Other Symptoms, Change from Baseline, 75th Percentile [1]: 17.0
Arthritis Self-Efficacy Scale Pain and Other Symptoms, Change from Baseline, Maximum [1]: 52.7
Arthritis Self-Efficacy Scale Pain and Other Symptoms, Change from Baseline, Mean (SD) [1]: 7.0 (18.5)
Arthritis Self-Efficacy Scale Pain and Other Symptoms, Change from Baseline, Median [1]: 7.5
Arthritis Self-Efficacy Scale Pain and Other Symptoms, Change from Baseline, Minimum [1]: −44.0
Arthritis Self-Efficacy Scale Pain and Other Symptoms, Observed Value, 25th Percentile [1]: 55.0
Arthritis Self-Efficacy Scale Pain and Other Symptoms, Observed Value, 75th Percentile [1]: 88.0
Arthritis Self-Efficacy Scale Pain and Other Symptoms, Observed Value, Maximum [1]: 107.0
Arthritis Self-Efficacy Scale Pain and Other Symptoms, Observed Value, Mean (SD) [1]: 70.0 (21.0)
Arthritis Self-Efficacy Scale Pain and Other Symptoms, Observed Value, Median [1]: 71.0
Arthritis Self-Efficacy Scale Pain and Other Symptoms, Observed Value, Minimum [1]: 27.0
Arthritis Self-Efficacy Scale Pain, Change from Baseline, 25th Percentile [1]: −4.0
Arthritis Self-Efficacy Scale Pain, Change from Baseline, 75th Percentile [1]: 8.0
Arthritis Self-Efficacy Scale Pain, Change from Baseline, Maximum [1]: 35.0
Arthritis Self-Efficacy Scale Pain, Change from Baseline, Mean (SD) [1]: 2.7 (10.5)
Arthritis Self-Efficacy Scale Pain, Change from Baseline, Median [1]: 2.0
Arthritis Self-Efficacy Scale Pain, Change from Baseline, Minimum [1]: −20.0
Arthritis Self-Efficacy Scale Pain, Observed Value, 25th Percentile [1]: 22.0
Arthritis Self-Efficacy Scale Pain, Observed Value, 75th Percentile [1]: 37.0
Arthritis Self-Efficacy Scale Pain, Observed Value, Maximum [1]: 49.0
Arthritis Self-Efficacy Scale Pain, Observed Value, Mean (SD) [1]: 29.2 (9.8)
Arthritis Self-Efficacy Scale Pain, Observed Value, Median [1]: 30.0
Arthritis Self-Efficacy Scale Pain, Observed Value, Minimum [1]: 9.0
Arthritis Self-Efficacy Scale Function, Change from Baseline, Least Squares Means (SE) [2] ([1]; ANCOVA): 6.2 (1.6)
Arthritis Self-Efficacy Scale Other Symptoms, Change from Baseline, Least Squares Means (SE) [2] ([1]; ANCOVA): 3.3 (1.1)
Arthritis Self-Efficacy Scale Overall, Change from Baseline, Least Squares Means (SE) [2] ([1]; ANCOVA): 12.4 (2.9)
Arthritis Self-Efficacy Scale Pain and Other Symptoms, Change from Baseline, Least Squares Means (SE) [2] ([1]; ANCOVA): 6.1 (1.8)
Arthritis Self-Efficacy Scale Pain, Change from Baseline, Least Squares Means (SE) [2] ([1]; ANCOVA): 2.4 (0.9)
effect on change from baseline to the end of study in the Subject Pain Severity Assessment ([2]; 3 mg nightly vs placebo): significant effect
Subject Pain Severity Assessment, Change from Baseline, Least Squares Means (SE) [2] ([2]; 3 mg nightly, visit 5 (Week 4), ITT, ANCOVA): −0.5 (0.2)
Subject Pain Severity Assessment, Change from Baseline, 25th Percentile [2, 3]: −2.0
Subject Pain Severity Assessment, Change from Baseline, 75th Percentile [2, 3]: 0.5
Subject Pain Severity Assessment, Change from Baseline, Maximum [2, 3]: 7.0
Subject Pain Severity Assessment, Change from Baseline, Mean (SD) [2, 3]: −0.5 (2.6)
Subject Pain Severity Assessment, Change from Baseline, Median [2, 3]: −1.0
Subject Pain Severity Assessment, Change from Baseline, Minimum [2, 3]: −7.0
Subject Pain Severity Assessment, Observed Value, 25th Percentile [2, 3]: 2.5
Subject Pain Severity Assessment, Observed Value, 75th Percentile [2, 3]: 7.0
Subject Pain Severity Assessment, Observed Value, Maximum [2, 3]: 10.0
Subject Pain Severity Assessment, Observed Value, Mean (SD) [2, 3]: 4.6 (2.7)
Subject Pain Severity Assessment, Observed Value, Median [2, 3]: 5.0
Subject Pain Severity Assessment, Observed Value, Minimum [2, 3]: 0.0
Blood gases and blood chemistries (pH, pCO2, pO2, hematocrit, and lactate) (conscious dogs): remained unaffected
cardiotoxicity by electrocardiogram (ECG) (conscious dogs): No evidence of cardiotoxicity
effect on blood pressure (conscious dogs): dose dependent, transient decreases
effect on heart rate (conscious dogs): compensatory increase
antagonism of oxotremorine induced salivation (mice): neither (R)-, (S)-, nor racemic zopiclone significantly antagonized
